Numbered stars: 1 amine (or outer) side, 2 acyl side, 3 side chain; on linkers, the order of the positions; unused ones are H or OH. Square brackets hold non-standard residues; d marks the D form. Side chains are listed from the residue outwards. Peptide text beside a SMILES is read from it. * marks the point of attachment. γGlu = O=C(O)[C@H](CCC(=O)[*:2])N[*:1]; 1Nal = N[C@@H](Cc1cccc2ccccc12)C(=O)O; Palmitoyl = CCCCCCCCCCCCCCCC(=O)*; Aib = CC(C)(N)C(=O)O
Biological target: T1, human GLP-1 R (Homo sapiens, UniProt P43220)
T1 construct: expressed in transfected cells
T1 sequence (P43220 24-463): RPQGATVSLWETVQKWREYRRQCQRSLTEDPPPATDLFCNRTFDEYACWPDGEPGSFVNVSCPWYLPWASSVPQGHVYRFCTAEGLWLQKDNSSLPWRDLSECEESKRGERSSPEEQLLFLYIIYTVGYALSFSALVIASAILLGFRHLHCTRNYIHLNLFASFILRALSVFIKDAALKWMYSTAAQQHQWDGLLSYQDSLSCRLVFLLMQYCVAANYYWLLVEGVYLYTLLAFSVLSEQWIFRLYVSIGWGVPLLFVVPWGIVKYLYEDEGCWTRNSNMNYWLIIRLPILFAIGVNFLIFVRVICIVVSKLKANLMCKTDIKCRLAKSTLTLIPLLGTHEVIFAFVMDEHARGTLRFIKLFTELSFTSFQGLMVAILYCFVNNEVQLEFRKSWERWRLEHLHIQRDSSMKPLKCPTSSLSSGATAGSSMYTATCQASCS
Test: Human GLP-1 receptor (GLP-1 R) activity assay, cAMP induction (AlphaScreen cAMP kit)
Format: cell-based
Conditions: HEK293 cells expressing the human GLP-1 R, 15 min at 37° C., average values of multiple determinations, read-out: GLP1 R (EC50 in nM)
Experimental: Human GIP Receptor (GIP R) and GLP-1 Receptor (GLP-1 R) Activity Assay
In vitro effects of peptide conjugates of the invention were assessed by measuring the induction of cAMP following stimulation of the respective receptor by GIP, GLP1 or analogues of these, as outlined in the invention, using the AlphaSceen® cAMP kit from Perkin-Elmer according to instructions. Briefly. HEK293 cells expressing the human GIP R or GLP-1 R (stable cell lines generated through transfection of the cDNA for human GIP R or GLP-1 and selection of stable clones) were seeded at 30,000 cells/well in 96-well microtiter plates coated with 0.01% poly-L-lysine, and grown for 1 day in culture in 200 μl growth medium (DMEM, 10% FCS, Penicillin (100 IU/ml), Streptomycin (100 μg/ml)). On the day of analysis, growth medium was removed and the cells were washed once with […] Tyrode's buffer (Tyrode's Salts (9.6 g/1), 10 mM HEPES, pH 7.4). […] The Assay buffer was removed and cells are lysed in 80 μl Lysis buffer (0.1% w/v BSA, 5 mM HEPES, 0.3% v/v Tween-20) per well. From each well 10 μl lysed cells was transferred to a 384-well plate and mixed with 15 μl bead-mix (1 Unit/15 μl anti-cAMP Acceptor Beads, 1 Unit/15 μl Donor Beads, and 1 Unit/15 μl Biotinylated cAMP in Assay Buffer). The plates were mixed and incubated in the dark for an hour at room temperature before measuring using an Envision™ plate reader (Perkin-Elmer).

| Compound | EC50 [nM] |
| --- | --- |
| CC[C@H](C)[C@H](NC(=O)[C@H](CO)NC(=O)[C@H](Cc1ccc(O)cc1)NC(=O)[C@H](CC(=O)O)NC(=O)[C@H](CO)NC(=O)[C@@H](NC(=O)[C@H](Cc1ccccc1)NC(=O)[C@@H](NC(=O)CNC(=O)[C@H](CCC(=O)O)NC(=O)C(C)(C)NC(=O)[C@@H](N)Cc1ccc(O)cc1)[C@@H](C)O)[C@@H](C)O)C(=O)NC(C)(C)C(=O)N[C@@H](CC(C)C)C(=O)N[C@@H](CC(=O)O)C(=O)N[C@@H](CCCCN)C(=O)N[C@@H](CCCCN)C(=O)N[C@@H](C)C(=O)N[C@@H](CCC(N)=O)C(=O)N[C@@H](CCCNC(=N)N)C(=O)N[C@@H](C)C(=O)N[C@@H](Cc1ccccc1)C(=O)N[C@H](C(=O)N[C@@H](CCC(=O)O)C(=O)N[C@@H](Cc1c[nH]c2ccccc12)C(=O)N[C@@H](CC(C)C)C(=O)N[C@@H](CC(C)C)C(=O)N[C@@H](C)C(=O)N[C@@H](CCC(N)=O)C(=O)NCC(=O)N1CCC[C@H]1C(=O)N[C@@H](CO)C(=O)N[C@@H](CO)C(=O)NCC(=O)N[C@@H](C)C(=O)N1CCC[C@H]1C(=O)N1CCC[C@H]1C(=O)N1CCC[C@H]1C(=O)N[C@@H](CO)C(N)=O)C(C)C [Compound 2] (H-Y[Aib]EGTFTSDYSI[Aib]LDKKAQRAFVEWLLAQGPSSGAPPPS-NH2) | 0.015 |
| CC[C@H](C)[C@H](NC(=O)[C@H](CO)NC(=O)[C@H](Cc1ccc(O)cc1)NC(=O)[C@H](CC(=O)O)NC(=O)[C@H](CO)NC(=O)[C@@H](NC(=O)[C@H](Cc1ccccc1)NC(=O)[C@@H](NC(=O)CNC(=O)[C@H](CCC(=O)O)NC(=O)C(C)(C)NC(=O)[C@@H](N)Cc1ccc(O)cc1)[C@@H](C)O)[C@@H](C)O)C(=O)N[C@@H](Cc1ccc(O)cc1)C(=O)N[C@@H](CC(C)C)C(=O)N[C@@H](CCC(=O)O)C(=O)N[C@@H](CCCCN)C(=O)N[C@@H](CCCCN)C(=O)N[C@@H](C)C(=O)N[C@@H](CCC(N)=O)C(=O)N[C@@H](CCCNC(=N)N)C(=O)N[C@@H](C)C(=O)N[C@@H](Cc1ccccc1)C(=O)N[C@H](C(=O)N[C@@H](CC(N)=O)C(=O)N[C@@H](Cc1c[nH]c2ccccc12)C(=O)N[C@@H](CC(C)C)C(=O)N[C@@H](CC(C)C)C(=O)N[C@@H](C)C(=O)NC(C)(C)C(=O)N[C@@H](CCCCN)C(N)=O)C(C)C [Compound 14] (H-Y[Aib]EGTFTSDYSIYLEKKAQRAFVNWLLA[Aib]K-NH2) | 0.0087 |
| CC[C@H](C)[C@H](NC(=O)[C@H](CO)NC(=O)[C@H](Cc1ccc(O)cc1)NC(=O)[C@H](CC(=O)O)NC(=O)[C@H](CO)NC(=O)[C@@H](NC(=O)[C@H](Cc1ccccc1)NC(=O)[C@@H](NC(=O)CNC(=O)[C@H](CCC(=O)O)NC(=O)C(C)(C)NC(=O)[C@@H](N)Cc1ccc(O)cc1)[C@@H](C)O)[C@@H](C)O)C(=O)N[C@@H](C)C(=O)N[C@@H](CC(C)C)C(=O)N[C@@H](CCC(=O)O)C(=O)N[C@@H](CCCCN)C(=O)N[C@@H](CCCCN)C(=O)N[C@@H](C)C(=O)N[C@@H](CCC(N)=O)C(=O)N[C@@H](CCCNC(=N)N)C(=O)N[C@@H](C)C(=O)N[C@@H](Cc1ccccc1)C(=O)N[C@H](C(=O)N[C@@H](CC(N)=O)C(=O)N[C@@H](Cc1c[nH]c2ccccc12)C(=O)N[C@@H](CC(C)C)C(=O)N[C@@H](CC(C)C)C(=O)N[C@@H](C)C(=O)NC(C)(C)C(=O)N[C@@H](CCCCN)C(N)=O)C(C)C [Compound 15] (H-Y[Aib]EGTFTSDYSIALEKKAQRAFVNWLLA[Aib]K-NH2) | 0.01 |
| CC[C@H](C)[C@H](NC(=O)[C@H](CO)NC(=O)[C@H](Cc1ccc(O)cc1)NC(=O)[C@H](CC(=O)O)NC(=O)[C@H](CO)NC(=O)[C@@H](NC(=O)[C@H](Cc1ccccc1)NC(=O)[C@@H](NC(=O)CNC(=O)[C@H](CCC(=O)O)NC(=O)C(C)(C)NC(=O)[C@@H](N)Cc1ccc(O)cc1)[C@@H](C)O)[C@@H](C)O)C(=O)N[C@@H](Cc1ccc(O)cc1)C(=O)N[C@@H](CC(C)C)C(=O)N[C@@H](CC(=O)O)C(=O)N[C@@H](CCCCN)C(=O)N[C@@H](CCCCN)C(=O)N[C@@H](C)C(=O)N[C@@H](CCC(N)=O)C(=O)N[C@@H](CCCNC(=N)N)C(=O)N[C@@H](C)C(=O)N[C@@H](Cc1ccccc1)C(=O)N[C@H](C(=O)N[C@@H](CCCCN)C(=O)N[C@@H](Cc1c[nH]c2ccccc12)C(=O)N[C@@H](CC(C)C)C(=O)N[C@@H](CC(C)C)C(=O)N[C@@H](C)C(=O)NC(C)(C)C(=O)N[C@@H](CCCCN)C(N)=O)C(C)C [Compound 20] (H-Y[Aib]EGTFTSDYSIYLDKKAQRAFVKWLLA[Aib]K-NH2) | 0.009 |
| CC[C@H](C)[C@H](NC(=O)[C@H](CO)NC(=O)[C@H](Cc1ccc(O)cc1)NC(=O)[C@H](CC(=O)O)NC(=O)[C@H](CO)NC(=O)[C@@H](NC(=O)[C@H](Cc1ccccc1)NC(=O)[C@@H](NC(=O)CNC(=O)[C@H](CCC(=O)O)NC(=O)C(C)(C)NC(=O)[C@@H](N)Cc1ccc(O)cc1)[C@@H](C)O)[C@@H](C)O)C(=O)N[C@@H](Cc1ccc(O)cc1)C(=O)N[C@@H](CC(C)C)C(=O)N[C@@H](CC(=O)O)C(=O)N[C@@H](CO)C(=O)N[C@@H](CCCCN)C(=O)N[C@@H](C)C(=O)N[C@@H](C)C(=O)N[C@@H](Cc1c[nH]cn1)C(=O)N[C@@H](CC(=O)O)C(=O)N[C@@H](Cc1ccccc1)C(=O)N[C@H](C(=O)N[C@@H](CCC(=O)O)C(=O)N[C@@H](Cc1c[nH]c2ccccc12)C(=O)N[C@@H](CC(C)C)C(=O)N[C@@H](CC(C)C)C(=O)N[C@@H](CO)C(=O)N[C@@H](C)C(=O)NCC(=O)N1CCC[C@H]1C(=O)N[C@@H](CO)C(=O)N[C@@H](CO)C(=O)NCC(=O)N[C@@H](C)C(=O)N1CCC[C@H]1C(=O)N1CCC[C@H]1C(=O)N1CCC[C@H]1C(=O)N[C@@H](CO)C(N)=O)C(C)C [Compound 55] (H-Y[Aib]EGTFTSDYSIYLDSKAAHDFVEWLLSAGPSSGAPPPS-NH2) | 0.0087 |

Other lines, results leading:

| EC50 [nM] | Compound |
| --- | --- |
| 0.11 | CCCCCCCCCCCCCCCC(=O)N[C@@H](CCC(=O)NCCCC[C@H](NC(=O)[C@H](CO)NC(=O)[C@H](CC(=O)O)NC(=O)[C@H](CC(C)C)NC(=O)[C@H](Cc1ccc(O)cc1)NC(=O)[C@H](CCCCN)NC(=O)[C@H](CO)NC(=O)[C@H](Cc1ccc(O)cc1)NC(=O)[C@H](CC(=O)O)NC(=O)[C@H](CO)NC(=O)[C@@H](NC(=O)[C@H](Cc1ccccc1)NC(=O)[C@@H](NC(=O)CNC(=O)[C@H](CCC(=O)O)NC(=O)C(C)(C)NC(=O)[C@@H](N)Cc1ccc(O)cc1)[C@@H](C)O)[C@@H](C)O)C(=O)N[C@@H](C)C(=O)N[C@@H](C)C(=O)N[C@@H](Cc1c[nH]cn1)C(=O)N[C@@H](CC(=O)O)C(=O)N[C@@H](Cc1ccccc1)C(=O)N[C@H](C(=O)N[C@@H](CCC(=O)O)C(=O)N[C@@H](Cc1c[nH]c2ccccc12)C(=O)N[C@@H](CC(C)C)C(=O)N[C@@H](CC(C)C)C(=O)N[C@@H](CO)C(=O)N[C@@H](C)C(N)=O)C(C)C)C(=O)O [Compound 45] (H-Y[Aib]EGTFTSDYSKYLDSK([γGlu-Palmitoyl])AAHDFVEWLLSA-NH2) |
| 0.041 | CC[C@H](C)[C@H](NC(=O)[C@H](CO)NC(=O)[C@H](Cc1ccc(O)cc1)NC(=O)[C@H](CC(=O)O)NC(=O)[C@H](CO)NC(=O)[C@@H](NC(=O)[C@H](Cc1ccccc1)NC(=O)[C@@H](NC(=O)CNC(=O)[C@H](CCC(=O)O)NC(=O)C(C)(C)NC(=O)[C@@H](N)Cc1ccc(O)cc1)[C@@H](C)O)[C@@H](C)O)C(=O)N[C@@H](Cc1ccc(O)cc1)C(=O)N[C@@H](CC(C)C)C(=O)N[C@@H](CC(=O)O)C(=O)N[C@@H](CCCCN)C(=O)N[C@@H](CCCCN)C(=O)N[C@@H](C)C(=O)N[C@@H](CCC(N)=O)C(=O)N[C@@H](CCCNC(=N)N)C(=O)N[C@@H](C)C(=O)N[C@@H](Cc1ccccc1)C(=O)N[C@H](C(=O)N[C@@H](CC(N)=O)C(=O)N[C@@H](Cc1c[nH]c2ccccc12)C(=O)N[C@@H](CC(C)C)C(=O)N[C@@H](CC(C)C)C(=O)N[C@@H](C)C(=O)NC(C)(C)C(=O)N[C@@H](CCCCN)C(=O)N[C@@H](Cc1ccc(O)cc1)C(=O)NCC(=O)N[C@@H](Cc1cccc2ccccc12)C(=O)N[C@@H](CC(C)C)C(=O)N[C@@H](CC(=O)O)C(=O)N[C@@H](Cc1ccccc1)C(N)=O)C(C)C [Compound 25] (H-Y[Aib]EGTFTSDYSIYLDKKAQRAFVNWLLA[Aib]KYG[1Nal]LDF-NH2) |
| 0.11 | CCCCCCCCCCCCCCCC(=O)N[C@@H](CCC(=O)NCCCC[C@H](NC(=O)[C@H](CO)NC(=O)[C@H](CC(=O)O)NC(=O)[C@H](CC(C)C)NC(=O)[C@H](Cc1ccc(O)cc1)NC(=O)[C@H](CCCCN)NC(=O)[C@H](CO)NC(=O)[C@H](Cc1ccc(O)cc1)NC(=O)[C@H](CC(=O)O)NC(=O)[C@H](CO)NC(=O)[C@@H](NC(=O)[C@H](Cc1ccccc1)NC(=O)[C@@H](NC(=O)CNC(=O)[C@H](CCC(=O)O)NC(=O)C(C)(C)NC(=O)[C@@H](N)Cc1ccc(O)cc1)[C@@H](C)O)[C@@H](C)O)C(=O)N[C@@H](C)C(=O)N[C@@H](C)C(=O)N[C@@H](Cc1c[nH]cn1)C(=O)N[C@@H](CC(=O)O)C(=O)N[C@@H](Cc1ccccc1)C(=O)N[C@H](C(=O)N[C@@H](CCC(=O)O)C(=O)N[C@@H](Cc1c[nH]c2ccccc12)C(=O)N[C@@H](CC(C)C)C(=O)N[C@@H](CC(C)C)C(=O)N[C@@H](CCCNC(=N)N)C(=O)N[C@@H](C)C(N)=O)C(C)C)C(=O)O [Compound 51] (H-Y[Aib]EGTFTSDYSKYLDSK([γGlu-Palmitoyl])AAHDFVEWLLRA-NH2) |
